The source of these data is patent US7091202B2, “4-arylspirocycloalkyl-2-aminopyrimidine carboxamide KCNQ potassium channel modulators” (Bristol-Myers Squibb Company, priority 2004, dated 2006).

The target of one assay is mKCNQ2 (Mus musculus, UniProt Q9Z351). In words: KCNQ patch-clamp: two-electrode voltage clamp on Xenopus laevis oocytes injected with mKCNQ2 cRNA. The format is cell-based. The following applies: for Percent TEA blockage: percent inhibition relative to 5 mM TEA blockade at a membrane voltage of −40 mV, mKCNQ2 in oocytes. The method, then:
KCNQ Patch-clamp. Frog oocytes were surgically harvested from mature Xenopus laevis that had been anesthetized with 0.15% 3-aminobenzoic acid ethyl ester (tricaine). Only late stage V and VI oocytes were selected for cRNA injection, and the overlying follicle cell layers were enzymatically removed. Each oocyte was injected with approximately 60 ng of the mKCNQ2 cRNA. Following injection, oocytes were maintained at 17° C. in ND96 medium consisting of (in mM): NaCl, 90; KCl, 1.0; CaCl2, 1.0; MgCl2, 1.0; HEPES, 5.0; (pH 7.5) and supplemented with heat-inactivated horse serum (5%) and penicillin/streptomycin (5%).
Two-electrode voltage clamp techniques were used to record membrane currents; recording commenced 3–7 days following cRNA injection (Gribkoff, V. K., et al., Mol. Pharmacol. 1996, 50(1), 206–217). For recording and compound application, oocytes were placed in a recording chamber and incubated in Modified Barth's Solution (MBS) consisting of (in mM): NaCl, 88; NaHCO3, 2.4; KCI, 1.0; HEPES, 10; MgSO4, 0.82; Ca(NO3)2, 0.33; CaCl2, 0.41; (pH 7.5). Voltage-clamp protocols consisted of a series of 4 second duration depolarizing voltage steps from a holding potential of −90 mV to a maximal potential of +40 mV in 10 mV intervals. A family of outward currents was generated under control conditions for comparison with currents elicited in the presence of an experimental compound. Control or drug solutions were continually introduced into the recording chamber using a gravity-flow system with an in-line electronic valve array. A minimum of 5 oocytes was used for each drug concentration; drug concentrations ranged from 0.001 μM to 10 μM. During a single experiment, an oocyte was exposed to as many as three drug concentrations sequentially administered for 5 minutes each. All experiments ended with a 5 minute application of TEA (5 mM), a non-selective, but effective blocker of KCNQ channels. Typically, 5 mM TEA produced a maximal blockade of outward current when measured at the −40 mV membrane voltage (94.6+/−0.5% inhibition, n=112). In this manner, all drug effects could be presented as a percentage of TEA blockade, controlling for the variable levels of channel expression from oocyte to oocyte. Table 1 discloses data for representative examples. Data are expressed as percent inhibition relative to TEA blockade at a membrane voltage of −40 mV: A>50% TEA blockage at 100 nM, B>50% TEA blockage at 1 μM, C<50% TEA blockage at 1.0 μM.
On the technique in general: Patch clamp records ionic current or voltage across a cell membrane.

Assay [1] has as its target T1, hQ23 (HEK-293 cell line stably transfected with one of the members of the KCNQ family) (Homo sapiens, UniProt O43525+O43526).
T1 construct: expressed in transfected cells; host or cells: HEK-293, stably transfected
In words: Thallium flux assay for KCNQ channel blockers (FLIPR, BTC dye). The format is cell-based. In outline: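 FLIPR thallium flux readout (BTC dye, 2 μM AM ester) in stably transfected KCNQ HEK-293 cells, chloride-free HEPES buffer pH 7.3, Tl2SO4 stimulus. IC50s were fitted with a single-site logistic equation across 10 points at 1:3 dilutions, defined as 50% of positive-control block; minimal active concentration meant signal ≥4 SD over DMSO controls.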

[2] abbreviates: hQ23 cells, thallium flux assay.

Sequence of mKCNQ2 (Q9Z351 whole entry): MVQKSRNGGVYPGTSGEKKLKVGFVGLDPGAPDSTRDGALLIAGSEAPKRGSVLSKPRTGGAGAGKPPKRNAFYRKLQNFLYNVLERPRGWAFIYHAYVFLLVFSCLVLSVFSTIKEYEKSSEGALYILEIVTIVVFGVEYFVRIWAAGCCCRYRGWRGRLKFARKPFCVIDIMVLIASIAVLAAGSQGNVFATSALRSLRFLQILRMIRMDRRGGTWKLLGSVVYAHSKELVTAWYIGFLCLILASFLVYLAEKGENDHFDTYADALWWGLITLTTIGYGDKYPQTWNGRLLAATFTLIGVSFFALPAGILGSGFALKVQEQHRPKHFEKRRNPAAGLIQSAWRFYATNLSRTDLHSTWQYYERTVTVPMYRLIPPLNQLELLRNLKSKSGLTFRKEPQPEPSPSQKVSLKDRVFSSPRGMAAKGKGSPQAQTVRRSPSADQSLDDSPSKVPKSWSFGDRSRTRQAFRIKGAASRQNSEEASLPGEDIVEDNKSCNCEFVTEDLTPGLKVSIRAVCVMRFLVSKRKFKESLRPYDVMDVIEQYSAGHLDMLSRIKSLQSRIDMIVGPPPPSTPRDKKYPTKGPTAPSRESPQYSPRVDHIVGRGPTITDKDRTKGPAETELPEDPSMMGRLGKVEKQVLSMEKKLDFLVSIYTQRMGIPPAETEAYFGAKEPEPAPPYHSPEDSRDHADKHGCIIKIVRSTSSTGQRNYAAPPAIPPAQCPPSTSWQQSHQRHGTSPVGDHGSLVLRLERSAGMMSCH
T1 sequence (O43526 whole entry): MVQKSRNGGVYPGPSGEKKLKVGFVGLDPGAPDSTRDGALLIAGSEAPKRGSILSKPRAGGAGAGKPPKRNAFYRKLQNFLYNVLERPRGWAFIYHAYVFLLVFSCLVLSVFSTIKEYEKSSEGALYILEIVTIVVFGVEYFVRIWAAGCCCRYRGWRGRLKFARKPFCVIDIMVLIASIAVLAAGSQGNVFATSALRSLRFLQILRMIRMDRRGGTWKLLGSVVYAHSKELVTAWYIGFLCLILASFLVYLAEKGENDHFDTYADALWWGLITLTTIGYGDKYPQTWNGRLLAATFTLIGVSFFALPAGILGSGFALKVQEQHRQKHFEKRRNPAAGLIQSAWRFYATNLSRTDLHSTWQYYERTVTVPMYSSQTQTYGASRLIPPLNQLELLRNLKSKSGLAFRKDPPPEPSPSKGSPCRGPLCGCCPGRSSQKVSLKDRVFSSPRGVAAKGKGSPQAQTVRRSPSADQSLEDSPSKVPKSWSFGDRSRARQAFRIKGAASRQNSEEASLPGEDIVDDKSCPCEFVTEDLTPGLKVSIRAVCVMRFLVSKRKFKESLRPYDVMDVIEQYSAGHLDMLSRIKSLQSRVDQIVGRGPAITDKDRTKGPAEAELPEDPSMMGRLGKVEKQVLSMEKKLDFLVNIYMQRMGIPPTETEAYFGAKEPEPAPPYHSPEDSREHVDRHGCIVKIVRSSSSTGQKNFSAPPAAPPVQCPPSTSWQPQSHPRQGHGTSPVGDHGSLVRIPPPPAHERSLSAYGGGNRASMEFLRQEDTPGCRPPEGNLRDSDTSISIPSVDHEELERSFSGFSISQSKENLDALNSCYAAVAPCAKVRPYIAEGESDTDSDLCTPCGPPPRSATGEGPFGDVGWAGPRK
T1 sequence (O43525 whole entry): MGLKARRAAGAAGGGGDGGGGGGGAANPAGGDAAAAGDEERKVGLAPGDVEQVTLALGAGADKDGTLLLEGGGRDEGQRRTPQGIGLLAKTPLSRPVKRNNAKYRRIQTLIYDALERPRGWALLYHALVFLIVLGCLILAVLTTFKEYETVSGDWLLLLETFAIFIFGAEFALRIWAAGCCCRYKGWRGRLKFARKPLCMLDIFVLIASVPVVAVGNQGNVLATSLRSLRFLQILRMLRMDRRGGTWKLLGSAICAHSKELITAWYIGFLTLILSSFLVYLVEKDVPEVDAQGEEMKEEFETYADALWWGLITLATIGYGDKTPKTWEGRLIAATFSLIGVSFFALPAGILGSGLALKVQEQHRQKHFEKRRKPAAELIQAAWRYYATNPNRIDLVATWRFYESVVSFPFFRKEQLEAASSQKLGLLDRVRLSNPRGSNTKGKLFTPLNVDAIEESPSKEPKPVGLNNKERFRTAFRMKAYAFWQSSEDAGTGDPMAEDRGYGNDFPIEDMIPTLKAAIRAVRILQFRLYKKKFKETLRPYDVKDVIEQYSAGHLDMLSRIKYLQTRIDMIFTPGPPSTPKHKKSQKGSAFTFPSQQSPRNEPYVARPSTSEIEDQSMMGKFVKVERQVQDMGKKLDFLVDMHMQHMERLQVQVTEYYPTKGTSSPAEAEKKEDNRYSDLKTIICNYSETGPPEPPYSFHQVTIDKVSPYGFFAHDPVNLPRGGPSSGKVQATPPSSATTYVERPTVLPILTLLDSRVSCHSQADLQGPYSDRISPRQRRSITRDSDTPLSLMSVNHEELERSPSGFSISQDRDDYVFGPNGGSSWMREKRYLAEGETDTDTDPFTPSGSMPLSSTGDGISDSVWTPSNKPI

For the compound `CC1CCN(c2ncc(C(=O)NC(C)c3cccnc3)c(C3(c4ccccc4)CCCC3)n2)CC1` (stereo not shown) [Example 16, 2-(4-Methyl-piperidin-1-yl)-4-(1-phenyl-cyclopentyl)-pyrimidine-5-carboxylic acid (1-pyridin-3-yl-ethyl)-amide], the “Percent TEA blockage” value at mKCNQ2 is on record as “A (A > 50% TEA blockage at 100 nM)”.

Usually EC50 stands for the concentration that produces a half-maximal response. Read a low EC50 as an effect from little substance. As to `CC1CCN(c2ncc(C(=O)NCc3ccc(Cl)cc3Cl)c(C3(c4ccc(F)cc4)CCCC3)n2)CC1` [Example 263, 5-pyrimidinecarboxamide, N-[(2,4-dichlorophenyl)methyl]-4-[1-(4-fluorophenyl)cyclopentyl]-2-(4-methyl-1-piperidinyl)-], the “Percent TEA blockage” value at mKCNQ2 was “A (A > 50% TEA blockage at 100 nM)”. Also, in assay [1] (setting [2]), the EC50 amounted to 17 nM.

Consider `CC[N+](CC)(CC)CC` [TEA, reference compound], for which, at mKCNQ2 (5 mM TEA, measured at −40 mV membrane voltage, n=112), the “maximal blockade of outward current (% inhibition)” value is listed as 94.6+/−0.5%.

With `O=C(NCc1ccc2c(c1)OCO2)c1cnc(N2CCCC2)nc1C1(c2ccccc2)CCCCC1` [Example 299, N-(1,3-benzodioxol-5-ylmethyl)-4-[1-phenylcyclohexyl]-2-(1-pyrrolidinyl)-5-pyrimidinecarboxamide], the “Percent TEA blockage” value on mKCNQ2 is given as “B (B > 50% TEA blockage at 1 μM)”.

`CC1CCN(c2ncc(C(=O)NCc3ccc(C(F)(F)F)cc3)c(C3(c4ccccc4)CCCC3)n2)CC1` [Example 138, 5-pyrimidinecarboxamide, 2-(4-methyl-1-piperidinyl)-4-(1-phenylcyclopentyl)-N-[[4-(trifluoromethyl)phenyl]methyl]-]: on mKCNQ2, the “Percent TEA blockage” value is “B (B > 50% TEA blockage at 1 μM)”. Besides, the 50% effective concentration (EC50) in assay [1] (hQ23 cells, thallium flux) was determined as 10 nM.

`CC1CCN(c2ncc(C(=O)NCc3ccc(Cl)cc3Cl)c(C3(c4ccc(Cl)cc4)CCCC3)n2)CC1` [Example 181, 5-pyrimidinecarboxamide, 4-[1-(4-chlorophenyl)cyclopentyl]-N-[(2,4-dichlorophenyl)methyl]-2-(4-methyl-1-piperidinyl)-]: the “Percent TEA blockage” value at mKCNQ2 is on record as “A (A > 50% TEA blockage at 100 nM)”. This compound came in with a concentration for a half-maximal effect (EC50) in assay [1] (hQ23 cells, thallium flux) of 10 nM.

With `CC1CCCN(c2ncc(C(=O)NCc3cc(F)cc(C(F)(F)F)c3)c(C3(c4ccccc4)CC3)n2)C1` (stereo not shown) [Example 47, 5-pyrimidinecarboxamide, N-[[3-fluoro-5-(trifluoromethyl)phenyl]methyl]-2-(3-methyl-1-piperidinyl)-4-(1-phenylcyclopropyl)-], a half-maximal effect in assay [1] (Table 2, thallium flux, HEK-293) (EC50) was put at 41 nM.

For `CC1CCC(Nc2ncc(C(=O)NCc3ccc(F)cc3F)c(C3(c4ccc(Cl)cc4)CCCC3)n2)CC1` (stereo not shown) [Example 186, 5-pyrimidinecarboxamide, 4-[1-(4-chlorophenyl)cyclopentyl]-N-[(2,4-difluorophenyl)methyl]-2-[(4-methylcyclohexyl)amino]-], the EC50 in assay [1] (hQ23 cells, thallium flux) is 128 nM. This counts as sub-micromolar.

In the case of `O=C(NCc1ccc2c(c1)OCO2)c1cnc(NC2CC2)nc1C1(c2ccccc2)CCCC1` [Example 89, 5-pyrimidinecarboxamide, N-(1,3-benzodioxol-5-ylmethyl)-2-(cyclopropylamino)-4-(1-phenylcyclopentyl)-], a half-maximal response in assay [1] (hQ23 cells, thallium flux) (EC50) required 692 nM.

Consider `CN(C)CCNc1ncc(C(=O)NCc2ccc(Cl)c(Cl)c2)c(C2(c3ccc(F)cc3)CCCC2)n1` [Example 257, 5-pyrimidinecarboxamide, N-[(3,4-dichlorophenyl)methyl]-2-[[2-(dimethylamino)ethyl]amino]-4-[1-(4-fluorophenyl)cyclopentyl]-], for which a half-maximal effect in assay [1] (setting [2]) (EC50) was put at 904 nM.
